Test results as given in PubChem BioAssay AID192 (DTP/NCI, 2004).
Several values for one entry are separate records, joined by “and”; a condition that tells them apart may be missing. Equal values may be shown once. Inconclusive results and toxic doses are left out. The calls were made as follows: active = survival T/C of 150% or more; inactive = T/C below 125% in these data.

Test system: BDF1 mice, B16 melanoma ip, median survival T/C
Test: NCI In Vivo Anticancer Drug Screen. Data for tumor model B16 Melanoma (intraperitoneal) in B6D2F1 (BDF1) mice
Details: endpoint: median survival time, higher = longer survival
Outline: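 Vehicle-treated animals serve as the reference (C); treated animals (T) are scored for survival or tumor size after tumor transplantation.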

[1] = dose: 12.5 mg/kg/injection, schedule: Q01DX009 (ip), vehicle: Klucel (hydroxypropylcellulose) (HPC)
[2] = dose: 25.0 mg/kg/injection, schedule: Q01DX009 (ip), vehicle: Klucel (hydroxypropylcellulose) (HPC)
[3] = dose: 50.0 mg/kg/injection, schedule: Q01DX009 (ip), vehicle: Klucel (hydroxypropylcellulose) (HPC)
[4] = dose: 100.0 mg/kg/injection, schedule: Q01DX009 (ip), vehicle: Klucel (hydroxypropylcellulose) (HPC)
[5] = dose: 200.0 mg/kg/injection, schedule: Q01DX009 (ip), vehicle: Klucel (hydroxypropylcellulose) (HPC)
[6] = dose: 12.5 mg/kg/injection, schedule: Q01DX009 (ip), vehicle: saline
[7] = dose: 25.0 mg/kg/injection, schedule: Q01DX009 (ip), vehicle: saline
[8] = dose: 50.0 mg/kg/injection, schedule: Q01DX009 (ip), vehicle: saline
[9] = dose: 100.0 mg/kg/injection, schedule: Q01DX009 (ip), vehicle: saline
[10] = dose: 200.0 mg/kg/injection, schedule: Q01DX009 (ip), vehicle: saline
[11] = dose: 400.0 mg/kg/injection, schedule: Q01DX009 (ip), vehicle: Klucel (hydroxypropylcellulose) (HPC)
[12] = dose: 3.12 mg/kg/injection, schedule: Q01DX009 (ip), vehicle: Klucel (hydroxypropylcellulose) (HPC)
[13] = dose: 6.25 mg/kg/injection, schedule: Q01DX009 (ip), vehicle: Klucel (hydroxypropylcellulose) (HPC)
[14] = dose: 1.56 mg/kg/injection, schedule: Q01DX009 (ip), vehicle: Klucel (hydroxypropylcellulose) (HPC)
[15] = dose: 75.0 mg/kg/injection, schedule: Q01DX009 (ip), vehicle: Klucel (hydroxypropylcellulose) (HPC)
[16] = dose: 150.0 mg/kg/injection, schedule: Q01DX009 (ip), vehicle: Klucel (hydroxypropylcellulose) (HPC)
[17] = dose: 300.0 mg/kg/injection, schedule: Q01DX009 (ip), vehicle: Klucel (hydroxypropylcellulose) (HPC)
[18] = dose: 6.25 mg/kg/injection, schedule: Q01DX009 (ip), vehicle: saline with Tween-80
[19] = dose: 12.5 mg/kg/injection, schedule: Q01DX009 (ip), vehicle: saline with Tween-80
[20] = dose: 25.0 mg/kg/injection, schedule: Q01DX009 (ip), vehicle: saline with Tween-80
[21] = dose: 100.0 mg/kg/injection, schedule: Q04DX003 (ip), vehicle: saline with Tween-80
[22] = dose: 200.0 mg/kg/injection, schedule: Q04DX003 (ip), vehicle: saline with Tween-80
[23] = dose: 50.0 mg/kg/injection, schedule: Q01DX009 (ip), vehicle: saline with Tween-80
[24] = dose: 100.0 mg/kg/injection, schedule: Q01DX009 (ip), vehicle: saline with Tween-80
[25] = dose: 200.0 mg/kg/injection, schedule: Q01DX009 (ip), vehicle: saline with Tween-80

Measured: T/C

OC1CCCC2CCC[N-]C12.OC1CCCC2CCC[N-]C12.[Mn+2] (configuration not stated)
inactive: [1] 109 % of control | [2] 95 % of control | [3] 105 % of control | [4] 94 % of control | [5] 98 % of control

C/C=C(\C)C(=O)OC1C(C)=C2C(C1OC(=O)CCCC)C(C)(OC(C)=O)CC(OC(=O)CCCC)C1(O)C2OC(=O)C1(C)O (configuration not stated)
inactive: dose: 0.37 mg/kg/injection, schedule: Q01DX009 (ip), vehicle: Klucel (hydroxypropylcellulose) (HPC) 90 % of control | dose: 0.75 mg/kg/injection, schedule: Q01DX009 (ip), vehicle: Klucel (hydroxypropylcellulose) (HPC) 101 % of control | dose: 1.5 mg/kg/injection, schedule: Q01DX009 (ip), vehicle: Klucel (hydroxypropylcellulose) (HPC) 106 % of control | dose: 3.0 mg/kg/injection, schedule: Q01DX009 (ip), vehicle: Klucel (hydroxypropylcellulose) (HPC) 89 % of control

C=CCc1cn(C2CC(O)C(CO)O2)c(=O)[nH]c1=O (configuration not stated)
inactive: [6] 104 % of control | [7] 105 % of control | [8] 104 % of control | [9] 105 % of control | [10] 105 % of control | dose: 400.0 mg/kg/injection, schedule: Q01DX009 (ip), vehicle: saline 107 % of control

C/C(=N/NC(=O)c1ccccc1)c1ccccc1O
inactive: dose: 100.0 mg/kg/injection, schedule: Q04DX003 (ip), vehicle: gum acacia 93 % of control | dose: 200.0 mg/kg/injection, schedule: Q04DX003 (ip), vehicle: gum acacia 95 % of control | dose: 400.0 mg/kg/injection, schedule: Q04DX003 (ip), vehicle: gum acacia 93 % of control

COc1ccc(NC(=O)Oc2ccc(OC)cc2)cc1
inactive: [4] 90 % of control | [5] 93 % of control | [11] 93 % of control

CN(C)c1ccc2c(N(C)C)cc(N(C)C)nc2c1
inactive: [12] 99 % of control | [13] 107 % of control | [1] 97 % of control | [2] 108 % of control | [3] 102 % of control

Cc1ccc(NS(=O)(=O)c2ccccc2)cc1Cl
inactive: [5] 90 % of control | [11] 88 % of control

Nc1ccccc1SC1CC(=O)N(c2cccc3ccccc23)C1=O (configuration not stated)
inactive: [14] 98 % of control | [12] 96 % of control | [13] 88 % of control and 94 % of control | [1] 86 % of control | [4] 94 % of control and 96 % of control | dose: 100.0 mg/kg/injection, schedule: Q04DX003 (ip), vehicle: Klucel (hydroxypropylcellulose) (HPC) 100 % of control | [5] 92 % of control | dose: 200.0 mg/kg/injection, schedule: Q04DX003 (ip), vehicle: Klucel (hydroxypropylcellulose) (HPC) 100 % of control | [11] 92 % of control | dose: 400.0 mg/kg/injection, schedule: Q04DX003 (ip), vehicle: Klucel (hydroxypropylcellulose) (HPC) 93 % of control

Cc1ccc(NC(=O)COc2ccc(Cl)cc2)c([N+](=O)[O-])c1
inactive: [15] 95 % of control | [16] 97 % of control | [17] 90 % of control

CCCCOc1ccc(NC(N)=Nc2ccc(Cl)cc2)cc1
inactive: dose: 3.12 mg/kg/injection, schedule: Q01DX009 (ip), vehicle: saline with Tween-80 95 % of control | [18] 88 % of control | [19] 90 % of control | [20] 86 % of control

NC(=O)C(N)=O
inactive: [4] 103 % of control | [5] 96 % of control

CCCCC(C=O)(C=C=C(C)C)CC (configuration not stated)
inactive: [21] 88 % of control | [22] 95 % of control

CCOC(=O)c1c(C)[nH]c2c(-c3ccccc3)c3cc(Cl)ccc3nc12
inactive: [3] 100 % of control | [4] 104 % of control | [5] 94 % of control | [11] 94 % of control

COc1cc2c(ccc3c4cc(OC)c(OC)cc4c[n+](C)c23)cc1O
inactive: [23] 108 % of control | [24] 97 % of control | [25] 100 % of control

CNC(=O)CCCCC(=O)NC
inactive: [23] 102 % of control | [24] 116 % of control | [25] 124 % of control | dose: 400.0 mg/kg/injection, schedule: Q01DX009 (ip), vehicle: saline with Tween-80 115 % of control

Cc1ccc(NC(=O)c2ccc(Cl)cc2)c(C)c1
inactive: [15] 93 % of control | [16] 91 % of control | [17] 88 % of control

CN(C)CCOc1ccccc1Cc1ccccc1
inactive: [6] 121 % of control | [7] 106 % of control and 107 % of control | [8] 95 % of control and 100 % of control | [9] 105 % of control | [10] 94 % of control

COc1ccc(N=C(c2ccccc2)c2ccccc2)cc1
inactive: [21] 95 % of control | [22] 86 % of control | dose: 400.0 mg/kg/injection, schedule: Q04DX003 (ip), vehicle: saline with Tween-80 90 % of control

O=C(Nc1ccc(F)cc1)C(c1ccccc1)c1ccccc1
inactive: [19] 98 % of control | [20] 92 % of control | [23] 89 % of control

O=C1C=C(N2CC2)C(=O)C(N2CC2)=C1N1CC1
inactive: dose: 1.0 micrograms/kg/injection, schedule: Q01DX009 (ip), vehicle: saline 111 % of control | dose: 3.0 micrograms/kg/injection, schedule: Q01DX009 (ip), vehicle: saline 109 % of control | dose: 6.0 micrograms/kg/injection, schedule: Q01DX009 (ip), vehicle: saline 109 % of control | dose: 12.0 micrograms/kg/injection, schedule: Q01DX009 (ip), vehicle: saline 118 % of control

CCCCc1ccc2nc(NC(=O)OC)[nH]c2c1
inactive: [18] 106 % of control | [19] 112 % of control | [20] 115 % of control

CC(NC(=O)C(C)NC(=O)OC(C)(C)C)C(=O)O (configuration not stated)
inactive: [20] 92 % of control | [23] 94 % of control | [24] 93 % of control | [25] 92 % of control

C=CCOCC(O)CN(CCC(C)C)CCC(C)C (configuration not stated)
inactive: dose: 12.5 mg/kg/injection, schedule: Q04DX003 (ip), vehicle: Klucel (hydroxypropylcellulose) (HPC) 91 % of control | dose: 25.0 mg/kg/injection, schedule: Q04DX003 (ip), vehicle: Klucel (hydroxypropylcellulose) (HPC) 91 % of control | dose: 50.0 mg/kg/injection, schedule: Q04DX003 (ip), vehicle: Klucel (hydroxypropylcellulose) (HPC) 95 % of control

O=C(NCCCN1CCOCC1)C(Oc1ccccc1)Oc1ccccc1
inactive: dose: 0.09 mg/kg/injection, schedule: Q01DX009 (ip), vehicle: Klucel (hydroxypropylcellulose) (HPC) 88 % of control | dose: 0.19 mg/kg/injection, schedule: Q01DX009 (ip), vehicle: Klucel (hydroxypropylcellulose) (HPC) 92 % of control | dose: 0.78 mg/kg/injection, schedule: Q01DX009 (ip), vehicle: Klucel (hydroxypropylcellulose) (HPC) 87 % of control | [14] 88 % of control | [1] 92 % of control | [2] 86 % of control and 103 % of control | [3] 90 % of control

CN(C)CC/C=C1\c2ccccc2C(C)(C)c2ccc(Cl)cc21
inactive: [20] 118 % of control | [23] 92 % of control
